Source: US6835742B2, “Synergistic effect of amlodipine and atorvastatin on cholesterol crystal formation inhibition and aortic endothelial cell nitric oxide release” (priority 2000, dated 2004)

What was measured:
coronary artery disease = conditions: cited from earlier work
[1] = Small angle x-ray diffraction of cholesterol-enriched reconstituted membranes (cholesterol domain formation); type: physicochemical; conditions: for d-space of surrounding sterol-poor membrane region: 5° C., 74% relative humidity
[2] = system: rabbit aorta endothelial cell; assay: NO release from a single rabbit aorta endothelial cell (porphyrinic sensor); type: cell-based; conditions: after injection of atorvastatin; 37° C.
Procedure: NO release measurements. All measurements presented were recorded in vitro. NO release was measured directly from a single endothelial cell in the rabbit aorta. Measurements were done in Hank's balance solution at 37° C. […] The sensor operated with a three-electrode system [sensor working electrode, platinum wire (0.1 mm) counter electrode, and saturated calomel electrode (SCE—reference electrode)]. The three electrodes were connected to a potentiostat/galvanostat PAR273. Data were acquired with the use of an IBM computer with custom software. […] SCE. The release of NO was initiated by the injection of potential agonists of endothelial NO synthase (eNOS) using a temtoinjector placed in the controlled distance from the endothelial cell. Two different agonists were tested: amlodipine and atorvastatin. The different concentrations of these two compounds applied simultaneously were also tested.

stable and advanced CAD = conditions: compared to angioplasty with usual medical care; cited from earlier work
[3] = 1.1:1 cholesterol to phospholipid mole ratio, 5° C. (FIG. 5)
[4] = 1.2:1 cholesterol to phospholipid mole ratio, 5° C. (FIG. 4)
[5] = 1.2:1 cholesterol to phospholipid mole ratio

d-space of surrounding sterol-poor membrane region [1, 5] [Å] | d-space of surrounding sterol-poor membrane region ([1]; 1.1:1 cholesterol to phospholipid mole ratio) [Å] | SMILES | progression of carotid atherosclerosis (coronary artery disease; B-mode ultrasonographic assessments) | reduction in documented angina (coronary artery disease; compared to placebo) [%] | reduction in the need for revascularization (coronary artery disease; compared to placebo) [%] | effect on cholesterol domain formation [1, 3] | effect on cholesterol domain formation [1, 4] | maximum NO concentration released [2] [nmol/L] | reduction of overall incidence of cardiovascular events (stable and advanced CAD) [%] | time to a first ischemic event (stable and advanced CAD) | width of cholesterol monohydrate crystalline domains ([1]; samples containing verapamil, unaffected by temperature (93% relative humidity) or relative humidity (20° C.)) [Å]
57.8 | – | CCOC(=O)C1=C(COCCN)NC(C)=C(C(=O)OC)C1c1ccccc1Cl (centres unmarked) [AML, Amlodipine besylate] | significant slowing | 33 | 42 | no effect on domain formation | did not interfere with domain formation | – | – | – | –
56.8 | 55.8 | CC(C)c1c(C(=O)Nc2ccccc2)c(-c2ccccc2)c(-c2ccc(F)cc2)n1CC[C@@H](O)C[C@@H](O)CC(=O)[O-].CC(C)c1c(C(=O)Nc2ccccc2)c(-c2ccccc2)c(-c2ccc(F)cc2)n1CC[C@@H](O)C[C@@H](O)CC(=O)[O-].[Ca+2] [AT, atorvastatin calcium] | – | – | – | no effect on domain formation | did not interfere with domain formation | 20 ± 5 | 36 | significantly delayed | –
– | – | COc1ccc(CCN(C)CCCC(C#N)(c2ccc(OC)c(OC)c2)C(C)C)cc1OC (centres unmarked) [verapamil] | – | – | – | – | – | – | – | – | 34.0
